Legend:
barnyardgrass = experiment: Test B flood; assay type: in vivo, Echinochloa crus-galli; conditions: 250 g ai/ha, visual rating on 0 to 100 scale (0 no effect, 100 complete control), 13 to 15 days
Summary of the method: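 Two-leaf-stage plants, pots flooded (3 cm above soil) and treated through the water, which stayed at that depth. After 13–15 days in greenhouse conditions, visual assessment versus controls: 0 is no effect, 100 complete control, dash means no result.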

pigweed [1] = experiment: Test C preemergence; assay type: in vivo, Amaranthus retroflexus
Summary of the method: (§1)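 Visual rating, 0–100 scale (0 no effect, 100 complete control), vs untreated controls after 13–15 d greenhouse. Pre: seeds in loam/sand, treated at sowing. Post: plants in peat-based mix, 1- to 4-leaf (2–18 cm). Solvent + surfactant formulation, non-phytotoxic.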

oilseed rape = experiment: Test C postemergence; assay type: in vivo, Brassica napus; conditions: postemergence; for Oilseed Rape plant response rating: 62 g ai/ha, scale 0 to 100
Summary of the method: as §1

wheat = experiment: Test A preemergence; assay type: in vivo, Triticum aestivum; conditions: preemergence, 125 g ai/ha, visual injury approx. 10 days after treatment
Summary of the method: (§2)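 Growth medium: loam soil blended with sand. Preemergence treatment used a directed soil spray right after planting; postemergence treatment targeted seedlings at one to two leaves (2–10 cm height). Response was judged by eye relative to untreated plants about 10 days later on a 0–100 control scale.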

blackgrass [2] = experiment: Test C preemergence; assay type: in vivo, Alopecurus myosuroides; conditions: preemergence; for Plant response rating, Blackgrass: 125 g ai/ha, scale 0 to 100, 0 = no effect, 100 = complete control
Summary of the method: as §1

blackgrass [3] = experiment: Test C postemergence; assay type: in vivo, Alopecurus myosuroides; conditions: for Plant response rating (scale of 0 to 100 where 0 is no effect and 100 is complete control), Blackgrass: Postemergence, 31 g ai/ha, visually evaluated after 13 to 15 days; for Blackgrass plant response rating / Plant response rating, Blackgrass: postemergence; for Blackgrass plant response rating: 62 g ai/ha, scale 0 to 100
Summary of the method: as §1

velvetleaf = experiment: Test A preemergence; assay type: in vivo, Abutilon theophrasti; conditions: preemergence, 125 g ai/ha, visual injury approx. 10 days after treatment
Summary of the method: as §2

johnsongrass [4] = experiment: Test C postemergence; assay type: in vivo, Sorghum halepense; conditions: for Plant response rating (scale of 0 to 100 where 0 is no effect and 100 is complete control), Johnsongrass: Postemergence, 31 g ai/ha, visually evaluated after 13 to 15 days; for Johnsongrass plant response rating / Plant response rating, Johnsongrass: postemergence; for Johnsongrass plant response rating: 62 g ai/ha, scale 0 to 100
Summary of the method: as §1

foxtail, giant = experiment: Test A preemergence; assay type: in vivo, Setaria faberii; conditions: preemergence; for Foxtail, Giant plant response rating (0 to 100 scale): 125 g ai/ha, visual injury approx. 10 days after treatment; for Foxtail, Giant plant response rating: 500 g ai/ha, visual injury after approx. 10 days, 0 to 100 scale (0 no effect, 100 complete control)
Summary of the method: as §2

crabgrass, large = experiment: Test C postemergence; assay type: in vivo, Digitaria sanguinalis; conditions: for Plant response rating (scale of 0 to 100 where 0 is no effect and 100 is complete control), Crabgrass, Large: Postemergence, 31 g ai/ha, visually evaluated after 13 to 15 days; for Crabgrass, Large plant response rating / Plant response rating, Crabgrass, Large: postemergence; for Crabgrass, Large plant response rating: 62 g ai/ha, scale 0 to 100
Summary of the method: as §1

pigweed [5] = experiment: Test A preemergence; assay type: in vivo, Amaranthus retroflexus; conditions: preemergence, 125 g ai/ha, visual injury approx. 10 days after treatment
Summary of the method: as §2

johnsongrass [6] = experiment: Test C preemergence; assay type: in vivo, Sorghum halepense
Summary of the method: as §1

lambsquarters = experiment: Test C preemergence; assay type: in vivo, Chenopodium album
Summary of the method: as §1

waterhemp = experiment: Test C postemergence; assay type: in vivo, Amaranthus rudis; conditions: postemergence; for Plant response rating, Waterhemp: 250 g ai/ha, scale 0 to 100 (0 no effect, 100 complete control); for Waterhemp plant response rating: scale 0 to 100
Summary of the method: as §1

[7] = preemergence, 31 g ai/ha, visual rating, scale 0 to 100 (0 no effect, 100 complete control), 13 to 15 days
[8] = preemergence, 62 g ai/ha, scale 0 to 100 (0 no effect, 100 complete control), 13 to 15 days
[9] = preemergence, 125 g ai/ha, 13 to 15 days, scale 0 to 100, 0 = no effect, 100 = complete control
[10] = preemergence, 250 g ai/ha, scale 0 to 100, 0 is no effect, 100 is complete control
[11] = 250 g ai/ha, scale 0 to 100 (0 no effect, 100 complete control)
[12] = 125 g ai/ha, scale 0 to 100, 0 no effect, 100 complete control
[13] = 31 g ai/ha, visual rating, scale 0 to 100 (0 no effect, 100 complete control), 13 to 15 days
[14] = 62 g ai/ha, scale 0 to 100 (0 no effect, 100 complete control), 13 to 15 days
[15] = 250 g ai/ha, scale 0 to 100, 0 is no effect, 100 is complete control
[16] = Preemergence, rate head not shown (block before 16 g ai/ha), scale 0 to 100

`CCc1cc(C(=O)NCC(F)(F)F)nn1Cc1ccnc(SC(F)(F)F)c1` [Compound 214] was tested, and the “Plant response rating, Barnyardgrass” value (barnyardgrass) was 50, the “Pigweed plant response rating” value (pigweed [1]; [7]) was 100 and the “Pigweed plant response rating” value (pigweed [1]; [8]) was 100. The “Plant response rating, Pigweed” value (pigweed [1]; [9]) was 100, the “Pigweed plant response rating” value (pigweed [1]; [10]) was 100 and the “Oilseed Rape plant response rating” value (oilseed rape) was 60. The “Plant response rating, Oilseed Rape” value (oilseed rape; [11]) was 70, the “Plant response rating, Oilseed Rape” value (oilseed rape; [12]) was 60 and the “Wheat plant response rating (0 to 100 scale)” value (wheat) was 80. For the same compound, the “Blackgrass plant response rating” value (blackgrass [2]; [13]) was 85, the “Blackgrass plant response rating” value (blackgrass [2]; [14]) was 40 and the “Plant response rating, Blackgrass” value (blackgrass [2]; 13 to 15 days) was 90. For the same compound, the “Blackgrass plant response rating” value (blackgrass [2]; [15]) was 90, the “Plant response rating (scale of 0 to 100 where 0 is no effect and 100 is complete control), Blackgrass” value (blackgrass [3]) was 5 and the “Blackgrass plant response rating” value (blackgrass [3]) was 5. The “Plant response rating, Blackgrass” value (blackgrass [3]; [11]) was 50, the “Plant response rating, Blackgrass” value (blackgrass [3]; [12]) was 10 and the “Velvetleaf plant response rating (0 to 100 scale)” value (velvetleaf) was 100. The “Plant response rating (scale of 0 to 100 where 0 is no effect and 100 is complete control), Johnsongrass” value (johnsongrass [4]) was 0, the “Johnsongrass plant response rating” value (johnsongrass [4]) was 0 and the “Plant response rating, Johnsongrass” value (johnsongrass [4]; [11]) was 5. For the same compound, the “Plant response rating, Johnsongrass” value (johnsongrass [4]; [12]) was 5, the “Foxtail, Giant plant response rating (0 to 100 scale)” value (foxtail, giant) was 100 and the “Foxtail, Giant plant response rating” value (foxtail, giant) was 100. The “Plant response rating (scale of 0 to 100 where 0 is no effect and 100 is complete control), Crabgrass, Large” value (crabgrass, large) was 5, the “Crabgrass, Large plant response rating” value (crabgrass, large) was 5 and the “Plant response rating, Crabgrass, Large” value (crabgrass, large; [11]) was 55. For the same compound, the “Plant response rating, Crabgrass, Large” value (crabgrass, large; [12]) was 20, the “Pigweed plant response rating (0 to 100 scale)” value (pigweed [5]) was 100 and the “Johnsongrass plant response rating” value (johnsongrass [6]; [7]) was 0. For the same compound, the “Johnsongrass plant response rating” value (johnsongrass [6]; [8]) was 40, the “Plant response rating, Johnsongrass” value (johnsongrass [6]; [9]) was 75 and the “Johnsongrass plant response rating” value (johnsongrass [6]; [10]) was 90. For the same compound, the “Lambsquarters plant response rating” value (lambsquarters; [7]) was 100, the “Lambsquarters plant response rating” value (lambsquarters; [8]) was 100 and the “Plant response rating, Lambsquarters” value (lambsquarters; [9]) was 100. For the same compound, the “Lambsquarters plant response rating” value (lambsquarters; [10]) was 100, the “Plant response rating, Waterhemp” value (waterhemp) was 70 and the “Waterhemp plant response rating” value (waterhemp) was 60.
In the case of `CCc1cc(C(=O)NCC(F)(F)F)nn1Cc1ccnc(Br)c1` [Compound 224], the “Plant response rating, Barnyardgrass” value (barnyardgrass) is reported as 20, the “Plant response rating, Pigweed” value (pigweed [1]; [16]) is reported as 100 and the “Pigweed plant response rating” value (pigweed [1]; [8]) is reported as 100. For the same compound, the “Plant response rating, Pigweed” value (pigweed [1]; [9]) was 100, the “Pigweed plant response rating” value (pigweed [1]; [10]) was 100 and the “Oilseed Rape plant response rating” value (oilseed rape) was 50. For the same compound, the “Plant response rating, Oilseed Rape” value (oilseed rape; [11]) was 55, the “Plant response rating, Oilseed Rape” value (oilseed rape; [12]) was 50 and the “Wheat plant response rating (0 to 100 scale)” value (wheat) was 30. For the same compound, the “Blackgrass plant response rating” value (blackgrass [2]; [13]) was 80, the “Blackgrass plant response rating” value (blackgrass [2]; [14]) was 100 and the “Plant response rating, Blackgrass” value (blackgrass [2]; 13 to 15 days) was 80. The “Blackgrass plant response rating” value (blackgrass [2]; [15]) was 90, the “Plant response rating (scale of 0 to 100 where 0 is no effect and 100 is complete control), Blackgrass” value (blackgrass [3]) was 5 and the “Blackgrass plant response rating” value (blackgrass [3]) was 5. For the same compound, the “Plant response rating, Blackgrass” value (blackgrass [3]; [11]) was 20, the “Plant response rating, Blackgrass” value (blackgrass [3]; [12]) was 5 and the “Velvetleaf plant response rating (0 to 100 scale)” value (velvetleaf) was 100. For the same compound, the “Plant response rating (scale of 0 to 100 where 0 is no effect and 100 is complete control), Johnsongrass” value (johnsongrass [4]) was 20, the “Johnsongrass plant response rating” value (johnsongrass [4]) was 5 and the “Plant response rating, Johnsongrass” value (johnsongrass [4]; [11]) was 5. The “Plant response rating, Johnsongrass” value (johnsongrass [4]; [12]) was 5, the “Foxtail, Giant plant response rating (0 to 100 scale)” value (foxtail, giant) was 100 and the “Foxtail, Giant plant response rating” value (foxtail, giant) was 100. The “Plant response rating (scale of 0 to 100 where 0 is no effect and 100 is complete control), Crabgrass, Large” value (crabgrass, large) was 5, the “Crabgrass, Large plant response rating” value (crabgrass, large) was 5 and the “Plant response rating, Crabgrass, Large” value (crabgrass, large; [11]) was 20. For the same compound, the “Plant response rating, Crabgrass, Large” value (crabgrass, large; [12]) was 5, the “Pigweed plant response rating (0 to 100 scale)” value (pigweed [5]) was 100 and the “Plant response rating, Johnsongrass” value (johnsongrass [6]; [16]) was 15. The “Johnsongrass plant response rating” value (johnsongrass [6]; [8]) was 50, the “Plant response rating, Johnsongrass” value (johnsongrass [6]; [9]) was 60 and the “Johnsongrass plant response rating” value (johnsongrass [6]; [10]) was 98. For the same compound, the “Plant response rating, Lambsquarters” value (lambsquarters; [16]) was 100, the “Lambsquarters plant response rating” value (lambsquarters; [8]) was 100 and the “Plant response rating, Lambsquarters” value (lambsquarters; [9]) was 100. For the same compound, the “Lambsquarters plant response rating” value (lambsquarters; [10]) was 100, the “Plant response rating, Waterhemp” value (waterhemp) was 45 and the “Waterhemp plant response rating” value (waterhemp) was 50.
